This assay deals with T1, human α1H T-type channels (Homo sapiens, UniProt O95180).
T1 construct: expressed in transfected cells; host or cells: HEK 293
Nature of the assay: T-type calcium channel block, whole cell patch clamp in HEK cells (α1H). The assay is classed as cell-based. To be noted: HEK cells, patch clamp, mainly non-inactivated protocol; values above 10 μM shown as 10 μM; read-out: T-type Calcium Channel Block α1H IC50. How it is done: T-type calcium channel blocking activity was assayed in human embryonic kidney cells, HEK 293, stably transfected with the T-type calcium channel subunits. Briefly, cells were cultured in Dulbecco's modified eagle medium (DMEM) supplemented with 10% fetal bovine serum, 200 U/ml penicillin and 0.2 mg/ml streptomycin at 37° C. with 5% CO2. At 85% confluency cells were split with 0.25% trypsin/1 mM EDTA and plated at 10% confluency on glass coverslips. […] Fresh DMEM was supplied and the cells transferred to 28° C./5% CO2. Cells were incubated for 1 to 2 days prior to whole cell recording.
Standard patch-clamp techniques were employed to identify blockers of T-type currents. Briefly, previously described HEK cell lines stably expressing human α1G, α1H and α1I T-type channels were used for all the recordings (passage #: 4-20, 37° C., 5% CO2). Whole cell patch clamp experiments were performed using an Axopatch 200B amplifier (Axon Instruments, Burlingame, Calif.) linked to a personal computer equipped with pCLAMP software. Data were analyzed using Clampfit (Axon Instruments) and SigmaPlot 4.0 (Jandel Scientific). To obtain T-type currents, plastic dishes containing semi-confluent cells were positioned on the stage of a ZEISS AXIOVERT S100 microscope after replacing the culture medium with external solution (see below). Whole-cell patches were obtained using pipettes (borosilicate glass with filament, O.D.: 1.5 mm, I.D.: 0.86 mm, 10 cm length), fabricated on a SUTTER P-97 puller with resistance values of ˜5 MΩ (see below for internal solution).
In the non-inactivating protocol, the holding potential is set at −110 mV and with a pre-pulse at −100 mV for 1 second prior to the test pulse at −40 mV for 50 ms.
Test compounds were dissolved in external solution, 0.1-0.01% DMSO. After ˜10 min rest, they were applied by gravity close to the cell using a WPI microfil tubing. The “non-inactivated” pre-pulse was used to examine the resting block of a compound. The “inactivated” protocol was employed to study voltage-dependent block. […] Values are shown in μM and values above 10 μM are simply represented as 10 μM.
In general terms: The patch-clamp technique gives a direct electrical read-out from membranes.

The values below come from US8569344B2, “N-piperidinyl acetamide derivatives as calcium channel blockers” (Zalicus Pharmaceuticals Ltd., priority 2008, dated 2013).

The structures appear in SMILES notation.

T1 sequence (O95180 whole entry): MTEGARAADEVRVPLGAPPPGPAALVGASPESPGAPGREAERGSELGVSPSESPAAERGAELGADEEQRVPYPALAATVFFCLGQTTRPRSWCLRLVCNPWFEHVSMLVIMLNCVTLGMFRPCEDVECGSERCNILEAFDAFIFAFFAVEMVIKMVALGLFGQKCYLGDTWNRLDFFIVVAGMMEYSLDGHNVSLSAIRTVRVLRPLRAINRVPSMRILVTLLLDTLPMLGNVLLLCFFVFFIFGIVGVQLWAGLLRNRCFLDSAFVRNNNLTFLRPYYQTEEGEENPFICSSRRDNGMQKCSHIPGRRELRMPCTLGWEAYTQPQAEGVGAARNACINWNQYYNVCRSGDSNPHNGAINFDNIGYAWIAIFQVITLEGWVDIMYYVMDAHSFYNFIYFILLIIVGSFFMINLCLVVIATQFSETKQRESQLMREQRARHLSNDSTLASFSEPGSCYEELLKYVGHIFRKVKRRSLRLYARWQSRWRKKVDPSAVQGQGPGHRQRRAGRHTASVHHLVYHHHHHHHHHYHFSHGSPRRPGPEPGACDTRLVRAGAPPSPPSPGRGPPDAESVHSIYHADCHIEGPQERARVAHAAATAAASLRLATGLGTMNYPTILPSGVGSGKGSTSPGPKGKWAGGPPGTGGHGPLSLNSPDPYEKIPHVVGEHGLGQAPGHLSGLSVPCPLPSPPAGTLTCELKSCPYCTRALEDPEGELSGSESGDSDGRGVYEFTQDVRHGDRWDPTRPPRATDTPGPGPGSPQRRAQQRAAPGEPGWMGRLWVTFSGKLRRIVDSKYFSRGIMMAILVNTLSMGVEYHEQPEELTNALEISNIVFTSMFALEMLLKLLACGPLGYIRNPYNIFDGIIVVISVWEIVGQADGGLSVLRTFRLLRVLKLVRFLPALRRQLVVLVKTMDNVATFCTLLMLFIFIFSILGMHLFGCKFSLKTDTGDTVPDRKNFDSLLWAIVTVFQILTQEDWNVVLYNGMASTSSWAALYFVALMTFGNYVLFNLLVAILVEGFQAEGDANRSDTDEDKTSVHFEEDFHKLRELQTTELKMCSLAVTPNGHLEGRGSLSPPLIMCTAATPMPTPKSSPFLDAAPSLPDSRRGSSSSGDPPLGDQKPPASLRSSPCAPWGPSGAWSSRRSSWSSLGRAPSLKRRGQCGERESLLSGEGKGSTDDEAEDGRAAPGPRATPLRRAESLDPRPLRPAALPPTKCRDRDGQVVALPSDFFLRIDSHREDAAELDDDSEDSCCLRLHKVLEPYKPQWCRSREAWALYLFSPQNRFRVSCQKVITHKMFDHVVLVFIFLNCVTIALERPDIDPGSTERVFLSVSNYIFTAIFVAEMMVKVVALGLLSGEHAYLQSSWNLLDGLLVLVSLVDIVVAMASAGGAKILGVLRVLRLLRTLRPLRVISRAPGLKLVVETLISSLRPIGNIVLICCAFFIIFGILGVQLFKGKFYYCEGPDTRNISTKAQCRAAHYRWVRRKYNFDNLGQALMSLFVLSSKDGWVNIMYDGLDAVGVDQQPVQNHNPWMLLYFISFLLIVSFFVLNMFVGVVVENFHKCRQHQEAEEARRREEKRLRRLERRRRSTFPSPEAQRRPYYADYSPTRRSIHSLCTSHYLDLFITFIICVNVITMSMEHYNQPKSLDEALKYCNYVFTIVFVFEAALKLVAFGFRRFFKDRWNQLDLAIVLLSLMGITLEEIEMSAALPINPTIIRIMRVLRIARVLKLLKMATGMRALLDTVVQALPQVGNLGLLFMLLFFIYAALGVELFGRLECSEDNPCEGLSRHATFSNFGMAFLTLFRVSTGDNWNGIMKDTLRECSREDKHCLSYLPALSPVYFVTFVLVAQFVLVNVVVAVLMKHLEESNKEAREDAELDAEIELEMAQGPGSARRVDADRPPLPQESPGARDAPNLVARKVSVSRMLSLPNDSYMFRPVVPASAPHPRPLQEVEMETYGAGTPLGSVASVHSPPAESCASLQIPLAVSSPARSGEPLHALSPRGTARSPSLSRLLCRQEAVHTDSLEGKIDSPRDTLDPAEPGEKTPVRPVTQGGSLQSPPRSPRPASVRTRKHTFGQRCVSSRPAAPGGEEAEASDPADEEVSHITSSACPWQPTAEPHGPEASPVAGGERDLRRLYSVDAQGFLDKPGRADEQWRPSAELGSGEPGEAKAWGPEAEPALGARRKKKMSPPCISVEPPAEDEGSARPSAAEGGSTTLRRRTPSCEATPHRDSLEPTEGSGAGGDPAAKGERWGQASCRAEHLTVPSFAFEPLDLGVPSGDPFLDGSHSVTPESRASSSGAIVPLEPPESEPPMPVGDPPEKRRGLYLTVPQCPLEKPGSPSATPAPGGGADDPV

Usually IC50 stands for the concentration needed to halve the response being measured. `O=C(CN1CCC(CNC(=O)c2cc(C(F)(F)F)cc(C(F)(F)F)c2)CC1)NC1CCCCC1` [Compound 94, N-((1-(2-(cyclohexylamino)-2-oxoethyl)piperidin-4-yl)methyl)-3,5-bis(trifluoromethyl)benzamide]: the IC50 was found to be 60 nM. To `CC(C)(O)C(=O)NCCN1CCC(CNC(=O)c2cc(C(F)(F)F)cc(C(F)(F)F)c2)CC1` [Compound 65, N-((1-(2-(2-hydroxy-2-methylpropanamido)ethyl)piperidin-4-yl)methyl)-3,5-bis(trifluoromethyl) benzamide] belongs 6370 nM. Turning to `O=C(CN1CCC(CNC(=O)c2cc(C(F)(F)F)cc(C(F)(F)F)c2)CC1)N[C@H]1CC[C@H](O)CC1` [Compound 96, N-((1-(2-((1r,4r)-4-hydroxycyclo-hexylamino)-2-oxoethyl)piperidin-4-yl)methyl)-3,5-bis(trifluoromethyl) benzamide], the IC50 was over 10000 nM. To `O=C(NCC1CCN(C(=O)CN2CC[C@@H](O)C2)CC1)c1cc(C(F)(F)F)cc(C(F)(F)F)c1` [Compound 263, (R)-N-((1-(2-(3-hydroxypyrrolidin-1-yl)acetyl)piperidin-4-yl)methyl)-3,5-bis(trifluoromethyl)benzamide] belongs over 10000 nM; to `COC1CCN(C(=O)CN2CCC(CNC(=O)c3cc(C(F)(F)F)cc(C(F)(F)F)c3)CC2)CC1` [Compound 103, N-((1-(2-(4-methoxypiperidin-1-yl)-2-oxoethyl)piperidin-4-yl)methyl)-3,5-bis(trifluoromethyl)benzamide], 1210 nM. Regarding `O=C(CCC(F)(F)F)NCCN1CCC(CNC(=O)c2cc(C(F)(F)F)cc(C(F)(F)F)c2)CC1` [Compound 66, N-((1-(2-(4,4,4-trifluorobutanamido)ethyl)piperidin-4-yl)methyl)-3,5-bis(trifluoromethyl) benzamide], the IC50 stood at 370 nM. As for `O=C(NCC1CCN(C2CN(C(=O)c3cc(F)cc(Cl)c3)C2)CC1)c1cc(F)cc(Cl)c1` [Compound 605, 3-chloro-N-((1-(1-(3-chloro-5-fluorobenzoyl)azetidin-3-yl)piperidin-4-yl)methyl)-5-fluorobenzamide], the figure is 3580 nM; as for `COc1cc(Cl)cc(C(=O)N2CC(N3CCC(CNC(=O)c4cc(F)cc(Cl)c4)CC3)C2)c1` [Compound 600, 3-chloro-N-((1-(1-(3-chloro-5-methoxybenzoyl)azetidin-3-yl)piperidin-4-yl)methyl)-5-fluoro-benzamide], 2050 nM. To `CN(C(=O)CN1CCC(CNC(=O)c2cccc(Br)c2)CC1)C1(C)CCC1` [Compound 593, 3-bromo-N-((1-(2-(methyl(1-methylcyclobutyl)amino)-2-oxoethyl)piperidin-4-yl)methyl) benzamide] belongs 260 nM; to `O=C(NCC1CCN(CCN2CCCC2=O)CC1)c1cc(F)cc(C(F)(F)F)c1` [Compound 487, 3-fluoro-N-((1-(2-(2-oxopyrrolidin-1-yl)ethyl)piperidin-4-yl)methyl)-5-(trifluoromethyl)benzamide], over 10000 nM; to `O=C(CC1CC1)NCCN1CCC(CNC(=O)c2cc(C(F)(F)F)cc(C(F)(F)F)c2)CC1` [Compound 63, N-((1-(2-(2-cyclopropylacetamido)ethyl)piperidin-4-yl)methyl)-3,5-bis(trifluoromethyl)benzamide], 430 nM. On to `CC1CCCCC1NC(=O)CN1CCC(CNC(=O)c2cc(C(F)(F)F)cc(C(F)(F)F)c2)CC1` (stereo not shown) [Compound 93], for which the IC50 came out at 90 nM. Take `O=C(NCC1CCN(CC(=O)N2CCC(O)CC2)CC1)c1cc(C(F)(F)F)cc(C(F)(F)F)c1` [Compound 102, N-((1-(2-(4-hydroxypiperidin-1-yl)-2-oxoethyl)piperidin-4-yl)methyl)-3,5-bis(trifluoromethyl)benzamide]: the IC50 is over 10000 nM. As to `CC(C)(CN1CCC(CNC(=O)c2cc(F)cc(C(F)(F)F)c2)CC1)NS(=O)(=O)C(F)(F)F` [Compound 6, 3-fluoro-N-((1-(2-methyl-2-(trifluoromethylsulfonamido)propyl)piperidin-4-yl)methyl)-5-(trifluoromethyl)benzamide], the IC50 came to 1320 nM. As to `CCC1CCCCN1C(=O)CN1CCC(CNC(=O)c2cc(C(F)(F)F)cc(C(F)(F)F)c2)CC1` (stereo not shown) [Compound 100, N-((1-(2-(2-ethylpiperidin-1-yl)-2-oxoethyl)piperidin-4-yl)methyl)-3,5-bis(trifluoromethyl)benzamide], the IC50 was found to be 100 nM. As for `CC(C)(C)C(=O)NCCN1CCC(CNC(=O)c2cc(C(F)(F)F)cc(C(F)(F)F)c2)CC1` [Compound 60, N-((1-(2-pivalamidoethyl)piperidin-4-yl)methyl)-3,5-his(trifluoromethyl)benzamide], the figure is 220 nM.

For `C[C@@H]1CCCCN1C(=O)CN1CCC(CNC(=O)c2cc(C(F)(F)F)cc(C(F)(F)F)c2)CC1` [Compound 104, (R)-N-((1-(2-(2-methylpiperidin-1-yl)-2-oxoethyl)piperidin-4-yl)methyl)-3,5-bis(trifluoromethyl)benzamide], the IC50 turned out to be 140 nM.

Consider `O=C(NCC1CCN(CC(=O)N2CCC(CO)CC2)CC1)c1cc(C(F)(F)F)cc(C(F)(F)F)c1` [Compound 106, N-((1-(2-(4-(hydroxymethyl)piperidin-1-yl)-2-oxoethyl)piperidin-4-yl)methyl)-3,5-bis(trifluoromethyl)benzamide], for which the IC50 stood at 5560 nM. To `CS(=O)(=O)c1cc(C(=O)NCC2CCN(CC(=O)N3CCC[C@@H]3C(F)(F)F)CC2)cc(C(F)(F)F)c1` [Compound 589, (R)-3-(methylsulfonyl)-N-((1-(2-oxo-2-(2-(trifluoromethyl)pyrrolidin-1-yl)ethyl)piperidin-4-yl)methyl)-5-(trifluoromethyl) benzamide] belongs over 10000 nM. On to `C[C@H]1CC[C@H](C(=O)NCCN2CCC(CNC(=O)c3cc(C(F)(F)F)cc(C(F)(F)F)c3)CC2)CC1` [Compound 64, N-((1-(2-((1r,4r)-4-methylcyclohexanecarboxamido)ethyl)piperidin-4-yl)methyl)-3,5-bis(trifluoromethyl)benzamide], for which the IC50 turned out to be 200 nM. On to `CC(C)CS(=O)(=O)NCCN1CCC(CNC(=O)c2cc(C(F)(F)F)cc(C(F)(F)F)c2)CC1` [Compound 27, N-((1-(2-(2-methylpropylsulfonamido)ethyl)piperidin-4-yl)methyl)-3,5-bis(trifluoromethyl)benzamide], for which the IC50 was 190 nM. As for `CN(C(=O)CN1CCC(CNC(=O)c2cc(Cl)cc(Cl)c2)CC1)C1(C)CCC1` [Compound 592, 3,5-dichloro-N-((1-(2-(methyl(1-methylcyclobutyl)amino)-2-oxoethyl)piperidin-4-yl)methyl) benzamide], the figure is 80 nM; as for `CC(C)(C)OC(=O)N1CCC(O)(CN2CCC(CNC(=O)c3cc(F)cc(C(F)(F)F)c3)CC2)CC1` [Compound 599, tert-butyl 4-((4-((3-fluoro-5-(trifluoromethyl)benzamido)methyl)piperidin-1-yl)methyl)-4-hydroxy-piperidine-1-carboxylate], 1470 nM. To `CC(C)(CN1CCC(CNC(=O)c2cc(F)cc(C(F)(F)F)c2)CC1)NS(=O)(=O)C1CC1` [Compound 8, N-((1-(2-(cyclopropanesulfonamido)-2-methylpropyl)piperidin-4-yl)methyl)-3-fluoro-5-(trifluoromethyl)benzamide] belongs 2420 nM. As for `O=C(NCC1CCN(C2CN(C(=O)c3cccc(OC(F)(F)F)c3)C2)CC1)c1cc(F)cc(Cl)c1` [Compound 603, 3-chloro-5-fluoro-N-((1-(1-(3-(trifluoromethoxy)benzoyl)azetidin-3-yl)piperidin-4-yl)methyl)benzamide], the figure is 810 nM. On to `CN(C(=O)CN1CCC(CNC(=O)c2cc(C(F)(F)F)cc(C(F)(F)F)c2)CC1)C1CCCCC1` [Compound 101, N-((1-(2-(cyclohexyl(methyl)amino)-2-oxoethyl)piperidin-4-yl)methyl)-3,5-bis(trifluoromethyl)benzamide], for which the IC50 turned out to be 140 nM. As for `O=C(NCC1CCN(C2CN(C(=O)c3cc(Cl)cc(Cl)c3)C2)CC1)c1cc(F)cc(Cl)c1` [Compound 601, 3-chloro-N-((1-(1-(3,5-dichlorobenzoyl)azetidin-3-yl)piperidin-4-yl)methyl)-5-fluoro-benzamide], the figure is 1870 nM. To `CN1CCC(C(=O)NCCN2CCC(CNC(=O)c3cc(C(F)(F)F)cc(C(F)(F)F)c3)CC2)CC1` [Compound 61, N-(2-(4-((3,5-bis(trifluoromethyl)benzamido)methyl)piperidin-1-yl)ethyl)-1-methylpiperidin-4-carboxamide] belongs over 10000 nM.
